The structures appear in SMILES notation. Like-named read-outs stand apart in the source and are kept apart here.

The target of test [1] is T1, hCA I (Homo sapiens, UniProt P00915).
T1 construct: made in house
The test can be described thus: stopped-flow CO2 hydrase assay, hCA I. The test is classed as biochemical. As to conditions: mean from three determinations, errors 5–10%. The protocol:
(§1) An Applied Photophysics stopped-flow instrument has been used for assaying the CA catalysed CO2 hydration activity. […] The CO2 concentrations ranged from 1.7 to 17 mM for the determination of the kinetic parameters and inhibition constants. In particular, CO2 was bubbled in distilled deionised water for 30 min till saturation. A CO2 kit (Sigma, Milan, Italy) was used to measure the concentration in serially diluted solutions from the saturated one at the same temperature. […] The uncatalyzed rates were determined in the same manner and subtracted from the total observed rates. Stock solutions of inhibitor (1 µM) were prepared in distilled-deionised water and dilutions up to 0.1 nM were done thereafter with the assay buffer. […] The inhibition constants were obtained by non-linear least-squares methods using PRISM 3 and the Cheng-Prusoff equation[29], and represent the average from at least three different determinations. All recombinant CA isoforms were obtained in-house as previously reported[30]^,[31].

Test [2] has as its target T2, hCA II (Homo sapiens, UniProt P00918).
T2 construct: made in house
In words: stopped-flow CO2 hydrase assay, hCA II. The test is classed as biochemical. As to conditions: mean from three determinations, errors 5–10%. On the procedure: as §1

Test [3] addresses T3, hCA IX (Homo sapiens, UniProt Q16790).
T3 construct: made in house
In words: stopped-flow CO2 hydrase assay, hCA IX. The test is classed as biochemical. As to conditions: mean from three determinations, errors 5–10%. The protocol: as §1

In test [4] the target is T4, hCA XII (Homo sapiens, UniProt O43570).
T4 construct: made in house
In words: stopped-flow CO2 hydrase assay, hCA XII. The format is biochemical. The settings on record: mean from three determinations, errors 5–10%. On the procedure: as §1

Test [5] addresses T1, hCA I. Details: method as in PMID 25407638. As to conditions: lead compound, earlier report; cited from earlier work.
Test [6] concerns the target T2, hCA II. Set-up: method as in PMID 25407638. As to conditions: lead compound, earlier report; cited from earlier work.
Test [7] addresses T3, hCA IX. Details: method as in PMID 25407638. The settings on record: lead compound, earlier report; cited from earlier work.
Test [8] has as its target T4, hCA XII. Details: method as in PMID 25407638. The settings on record: lead compound, earlier report; cited from earlier work.

T4 sequence (O43570 25-354): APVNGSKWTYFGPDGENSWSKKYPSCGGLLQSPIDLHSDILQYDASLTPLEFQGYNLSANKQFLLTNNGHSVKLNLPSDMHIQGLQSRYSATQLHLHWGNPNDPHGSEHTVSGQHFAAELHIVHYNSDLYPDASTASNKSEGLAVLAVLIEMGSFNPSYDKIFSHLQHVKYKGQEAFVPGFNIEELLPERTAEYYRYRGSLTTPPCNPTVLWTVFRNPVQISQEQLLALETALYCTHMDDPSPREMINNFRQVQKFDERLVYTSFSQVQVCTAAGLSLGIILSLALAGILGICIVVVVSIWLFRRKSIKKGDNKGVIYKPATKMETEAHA
T1 sequence (P00915 whole entry): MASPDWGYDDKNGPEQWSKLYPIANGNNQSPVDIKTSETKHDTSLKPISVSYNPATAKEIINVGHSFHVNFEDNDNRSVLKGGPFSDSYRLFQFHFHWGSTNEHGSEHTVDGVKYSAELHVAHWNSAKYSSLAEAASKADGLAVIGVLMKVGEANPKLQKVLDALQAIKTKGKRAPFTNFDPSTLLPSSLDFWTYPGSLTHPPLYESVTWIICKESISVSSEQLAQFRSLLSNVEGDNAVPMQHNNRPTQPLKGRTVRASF

Usually Ki stands for a measure of affinity in units of concentration, obtained from inhibition or displacement. `CCS(=O)(=O)c1ccccc1C(N)=O` [Compound 29]: the Ki is more than 100 µM on hCA I [1], more than 100 µM at hCA II [2], 22.7 µM on hCA IX [3] and more than 100 µM on hCA XII [4].

As for `CCCS(=O)(=O)c1ccccc1C(N)=O` [Compound 32], the Ki on hCA I [1] was more than 100 µM; at hCA II [2] it was more than 100 µM; at hCA IX [3], 2.3 µM; at hCA XII [4] it was more than 100 µM.

As for `CS(=O)(=O)c1ccccc1C(N)=O` [Compound 26], the inhibition constant (Ki) on hCA I [1] is more than 100 µM; at hCA II [2], more than 100 µM; on hCA IX [3] it was 14 µM; at hCA XII [4], more than 100 µM.

Consider `O=C(O)c1ccccc1CCc1ccccc1` [Compound 41], for which the Ki on hCA I [1], on hCA II [2], at hCA IX [3] and on hCA XII [4] was more than 100 µM in each case.

Take `CCCCS(=O)(=O)c1ccccc1C(N)=O` [Compound 35]: the Ki is more than 100 µM on hCA I [1], more than 100 µM at hCA II [2], 13.5 µM at hCA IX [3] and more than 100 µM at hCA XII [4].

In the case of `CCSc1ccccc1C(N)=O` [Compound 27], the Ki was more than 100 µM at hCA I [1], more than 100 µM at hCA II [2], 16.7 µM on hCA IX [3] and more than 100 µM at hCA XII [4].

Turning to `CCC[S+]([O-])c1ccccc1C(N)=O` (stereo not shown) [Compound 31], the inhibition constant Ki on hCA I [1] was more than 100 µM; at hCA II [2] it was more than 100 µM; on hCA IX [3], 38.2 µM; on hCA XII [4] it was more than 100 µM.

For the compound `CC[S+]([O-])c1ccccc1C(N)=O` (stereo not shown) [Compound 28], the Ki on hCA I [1] was more than 100 µM; on hCA II [2], more than 100 µM; on hCA IX [3], 40.9 µM; on hCA XII [4], more than 100 µM.

Regarding `CCCCCSc1ccccc1C(N)=O` [Compound 36], the Ki was more than 100 µM on hCA I [1], more than 100 µM on hCA II [2], 2.7 µM at hCA IX [3] and more than 100 µM on hCA XII [4].

For the compound `O=C(Cc1ccccc1)Nc1ccccc1C(=O)O` [Compound 42], the Ki on hCA I [1], on hCA II [2], on hCA IX [3] and on hCA XII [4] was more than 100 µM throughout.

As to `CCCCC[S+]([O-])c1ccccc1C(N)=O` (stereo not shown) [Compound 37], the Ki at hCA I [1] was more than 100 µM; at hCA II [2], more than 100 µM; at hCA IX [3], 27.3 µM; at hCA XII [4], more than 100 µM.

Consider `COC(=O)c1ccccc1NCc1ccccc1` [Compound 45], for which the Ki at hCA I [1], at hCA II [2], at hCA IX [3] and on hCA XII [4] was more than 100 µM each time.

Take `NC(=O)c1ccccc1CCc1ccccc1` [Compound 49]: the Ki on hCA I [1], at hCA II [2], at hCA IX [3] and at hCA XII [4] was more than 100 µM each time.

For `COC(=O)c1ccccc1CCc1ccccc1` [Compound 46], the Ki on hCA I [1], at hCA II [2], at hCA IX [3] and at hCA XII [4] was more than 100 µM throughout.

`O=C(O)c1ccccc1[S+]([O-])Cc1ccccc1` (stereo not shown) [lead compound, 2-(benzylsulfinyl)benzoic acid]: the Ki at hCA I [5] is more than 10 µM; at hCA II [6] it was 0.15 µM; on hCA IX [7], 1.29 µM; on hCA XII [8], more than 10 µM.

On to `COC(=O)c1ccccc1OCc1ccccc1` [Compound 44], for which the Ki on hCA I [1], at hCA II [2], at hCA IX [3] and on hCA XII [4] was more than 100 µM throughout.

As for `O=C(O)c1ccccc1NCc1ccccc1` [Compound 40], the Ki on hCA I [1], on hCA II [2], at hCA IX [3] and on hCA XII [4] was more than 100 µM throughout.

With `NC(=O)c1ccccc1NC(=O)Cc1ccccc1` [Compound 50], the Ki on hCA I [1], at hCA II [2], on hCA IX [3] and at hCA XII [4] was more than 100 µM in each case.

On to `CCCC[S+]([O-])c1ccccc1C(N)=O` (stereo not shown) [Compound 34], for which the Ki is more than 100 µM on hCA I [1], more than 100 µM at hCA II [2], 36.4 µM at hCA IX [3] and more than 100 µM at hCA XII [4].

With `O=C(O)c1ccccc1OCc1ccccc1` [Compound 39], the inhibition constant (Ki) on hCA I [1], on hCA II [2], on hCA IX [3] and at hCA XII [4] was more than 100 µM in each case.

In the case of `CCCCCS(=O)(=O)c1ccccc1C(N)=O` [Compound 38], the Ki on hCA I [1] was more than 100 µM; on hCA II [2] it was more than 100 µM; on hCA IX [3], 8.7 µM; at hCA XII [4] it was more than 100 µM.

For the compound `Nc1ccccc1C(=O)O` [Compound 43, anthranilic acid], the Ki at hCA I [1], on hCA II [2], at hCA IX [3] and at hCA XII [4] was more than 100 µM each time.

As for `CSc1ccccc1C(N)=O` [Compound 24], the Ki at hCA I [1] was more than 100 µM; at hCA II [2], more than 100 µM; on hCA IX [3], 6.5 µM; at hCA XII [4], more than 100 µM.

For `C[S+]([O-])c1ccccc1C(N)=O` (stereo not shown) [Compound 25], the Ki on hCA I [1] is more than 100 µM; at hCA II [2] it was more than 100 µM; at hCA IX [3] it was 34.5 µM; on hCA XII [4] it was more than 100 µM.

Regarding `CCCSc1ccccc1C(N)=O` [Compound 30], the Ki on hCA I [1] is more than 100 µM; on hCA II [2], 90.9 µM; on hCA IX [3], more than 100 µM; on hCA XII [4], more than 100 µM.

For the compound `COC(=O)c1ccccc1[S@+]([O-])Cc1ccc(Cl)cc1` [(R)-11], the Ki was more than 100 µM at hCA I [1], more than 100 µM at hCA II [2] and 1.4 µM on hCA IX [3].

`NC(=O)c1ccccc1S(=O)(=O)Cc1ccccc1` [Compound 18]: the inhibition constant (Ki) at hCA I [1] was more than 10 µM; on hCA II [2] it was 2.67 µM; at hCA IX [3], more than 10 µM; on hCA XII [4] it was 0.066 µM. In addition, at hCA IX [3], the “Ki hCA IX” value is “completely lost the affinity”.

As to `NC(=O)c1ccccc1NCc1ccccc1` [Compound 48], the inhibitory constant (Ki) at hCA I [1], on hCA II [2], on hCA IX [3] and at hCA XII [4] was more than 100 µM in each case.

Turning to `CC(=O)c1ccccc1OCc1ccccc1` [Compound 52], the Ki on hCA I [1], on hCA II [2], at hCA IX [3] and on hCA XII [4] was more than 100 µM each time.

Regarding `CCCCSc1ccccc1C(N)=O` [Compound 33], the Ki was more than 100 µM on hCA I [1], more than 100 µM at hCA II [2], 2.5 µM on hCA IX [3] and more than 100 µM at hCA XII [4].

With `CC(=O)c1ccccc1NCc1ccccc1` [Compound 53], the Ki at hCA I [1], at hCA II [2], on hCA IX [3] and at hCA XII [4] was more than 100 µM in each case.

As for `O=C(NO)c1ccccc1NCc1ccccc1` [Compound 51], the Ki on hCA I [1], at hCA II [2], at hCA IX [3] and on hCA XII [4] was more than 100 µM in each case.

On to `COC(=O)c1ccccc1S(=O)(=O)CC(=O)c1ccccc1` [Compound 15], for which the inhibition constant (Ki) at hCA I [1], on hCA II [2] and on hCA IX [3] was more than 100 µM throughout.

With `COC(=O)c1ccccc1SCc1ccccc1` [Compound 7], the Ki was more than 100 µM at hCA I [1], 75.2 µM on hCA II [2] and 15 µM on hCA IX [3].

`O=C(O)c1ccccc1[S@+]([O-])Cc1ccccc1` [(R)-5]: the Ki was more than 100 µM at hCA I [1], 0.21 µM at hCA II [2] and 1.4 µM at hCA IX [3].

For `NC(=O)c1ccccc1SCc1ccccc1` [Compound 16], the Ki was more than 10 µM on hCA I [1], 8.22 µM at hCA II [2], 0.046 µM on hCA IX [3] and 2.66 µM on hCA XII [4]. The “Ki hCA XII” value on hCA XII [4] is recorded as “medium-potency inhibitor”.

Source of the values: article PMC6713143, “Design, synthesis and biological activity of selective hCAs inhibitors based on 2-(benzylsulfinyl)benzoic acid scaffold” (Journal of Enzyme Inhibition and Medicinal Chemistry, 2019).
